Measured values taken from US12414911B2, “Topical compositions and methods of use” (priority 2012, dated 2025).

What was measured:
Staph Aureus = experiment: Agar-solid Diffusion Method, inhibition zone; assay type: cell-based; settings: Staphylococcus aureus
P. Acnes = experiment: Agar-solid Diffusion Method, inhibition zone; assay type: cell-based; settings: Cutibacterium acnes
E. Coli = experiment: Agar-solid Diffusion Method, inhibition zone; assay type: cell-based; settings: Escherichia coli
C. Albicans = experiment: Agar-solid Diffusion Method, inhibition zone; assay type: cell-based; settings: Candida albicans
T. Rubrum = experiment: Agar-solid Diffusion Method, inhibition zone; assay type: cell-based; settings: Trichophyton rubrum
[1] = test system: LTB4 release from macrophages; experiment: Inhibition of LTB4 release from stimulated macrophage cell line (radioimmunoassay); assay type: cell-based; settings: NDGA 25 uM, positive control
Experimental: MFSO and the MFB skin extract have Anti-inflammatory Activity.
MFSO and the MFB skin extract were dissolved in DMSO and added to cell culture medium at a stock concentration for use in these in vitro experiments. The ability of MFSO to function as an inhibitor of LTB4 release was evaluated using a macrophage cell line followed by the addition of calcium iontophore for stimulation of LTB4 and the use of a radioimmunoassay (Amersham) for LTB4 detection as previously described (Garrido G, González D, Lemus Y, Garcia D, Lodeiro L, Quintero G, Delporte C, Núñez-Sellés A J, Delgado R. In vivo and in vitro anti-inflammatory activity of Mangifera indica L. extract (VIMANG). Pharmacol Res. 2004 August; 50 (2):143-9). NDGA (25 uM) is a known positive control that inhibits LTB4 release and the vehicle control consisted of DMSO in culture medium with no MFSO.

[2] = UVB SPF activity of formulations; assay type: in vivo, human; settings: Octinoxate 3% alone
Experimental: Formulations containing MFSO and octyl methoxycinnamate (Octinoxate), alone and in combination, were prepared without changing the vehicle base and tested for UVB SPF activity (2 subjects).
To evaluate for SPF boosting effects of MFSO, a concentration of Octinoxate was selected that gave SPF values that would allow for its efficient absorption and avoid the saturation effect that occurs when higher concentrations of sunscreens are used.

Normal human spermatozoa = experiment: Spermicidal activity (Sander-Cramer assay); assay type: cell-based; set-up: key: +: Mobile; −: Immobile; ±: 90% lost mobility; settings: 1% concentration
Description: Normal human spermatozoa were used to assess the spermicidal activity (Sander-Cramer assay) of MFSO as described (Benhong Z., Zhenpeng Q, Gang L, Chun L, Zhang J. Spermicidal and antigonococcal effects of tannins from pomegranate rind. Journal of Medicinal Plants Research 2012 February; 6 (7); 1334-1339). Nonoxynol-9 was used as a positive reference standard and semen added to physiological saline was used as the negative control. Semen samples were donated by 3 healthy fertile men. The minimum MFSO concentration that caused 100% immobilization of sperm within 20 seconds was considered to be the minimal effective concentration (MEC).

Compound `O=C(N[C@H](CO)[C@H](O)c1ccc([N+](=O)[O-])cc1)C(Cl)Cl` [Chloramphenicol] has a zone of inhibition at 30 µM (Staph Aureus; 30 uM) of 25 mm, a zone of inhibition at 30 µM (P. Acnes; 30 uM) of 25 mm and a zone of inhibition at 30 µM (E. Coli; 30 uM) of 0 mm. It also gave a zone of inhibition at 30 µM (C. Albicans; 30 uM) of 0 mm and a zone of inhibition at 30 µM (T. Rubrum; 30 uM) of 0 mm.
Compound `O=C(O)c1cn(C2CC2)c2cc(N3CCNCC3)c(F)cc2c1=O` [Ciprofloxacin] has a zone of inhibition at 10 µM (Staph Aureus; 10 uM) of 25 mm, a zone of inhibition at 10 µM (P. Acnes; 10 uM) of 22 mm and a zone of inhibition at 10 µM (E. Coli; 10 uM) of 25 mm. It also gave a zone of inhibition at 10 µM (C. Albicans; 10 uM) of 0 mm and a zone of inhibition at 10 µM (T. Rubrum; 10 uM) of 0 mm.
With `CC(=O)N1CCN(c2ccc(OCC3COC(Cn4ccnc4)(c4ccc(Cl)cc4Cl)O3)cc2)CC1` (stereo not shown) [Ketoconazole] the zone of inhibition at 1000 µM (Staph Aureus; 1 mM) was 0 mm, the zone of inhibition at 1000 µM (P. Acnes; 1 mM) was 0 mm and the zone of inhibition at 1000 µM (E. Coli; read-out: Inhibition Zone) was 0 mm. It also gave a zone of inhibition at 1000 µM (C. Albicans; 1 mM) of 25 mm and a zone of inhibition at 1000 µM (T. Rubrum; 1 mM) of 25 mm.
For `CC(Cc1ccc(O)c(O)c1)C(C)Cc1ccc(O)c(O)c1` (stereo not shown) [NDGA], the “inhibition of LTB4 release” value [1] was 98%.
For `CCCCC(CC)COC(=O)C=Cc1ccc(OC)cc1` (stereo not shown) [Octinoxate, octyl methoxycinnamate], the SPF [2] was 3.
In the case of Nonoxynol-9, the “Sperm Motility” value (Normal human spermatozoa; action time 20 seconds) is reported as “−” and the “Sperm Motility” value (Normal human spermatozoa; action time 60 seconds) is reported as “−”.
